Molecular target: Histone-lysine N-methyltransferase EZH2 [Y641N] (UniProt Q15910, Y641N)
Assay: Test on EZH2 (Y641F) and EZH2 (Y641N) Inhibitory Activities
Experimental: ProceduresCompounds at different concentrations were dissolved in 100% DMSO and transferred to test plates, and the final concentration of DMSO was 1%. Enzyme solution and substrate SAM solution were prepared with 1-fold reaction buffer (optimized Tris buffer). 5 uL of enzyme solution was added to the test plate and wells only added with 5 uL of reaction buffer were used as negative control wells. […] 5 uL of receptor solution was added and the plate was incubated away from light at room temperature for 60 min. 10 uL of donor solution was added and the plate was incubated away from light at room temperature for 30 min. The endpoint values were read on the Envision and the IC50 was calculated.Data CalculationData were fitted by GraphPad Prism 5 software and inhibition rate was calculated according to equation (1)Inh %=(Max−Signal)/(Max−Min)×100 (1)IC50 was calculated using equation (2)Y=Bottom+(Top−Bottom)/(1+10^((Log IC 50 −X)×Hill Slope))Y: inhibition rate; X: concentration of the compound

Histone-lysine N-methyltransferase EZH2 [Y641N], sequence (Q15910 whole entry Y641N): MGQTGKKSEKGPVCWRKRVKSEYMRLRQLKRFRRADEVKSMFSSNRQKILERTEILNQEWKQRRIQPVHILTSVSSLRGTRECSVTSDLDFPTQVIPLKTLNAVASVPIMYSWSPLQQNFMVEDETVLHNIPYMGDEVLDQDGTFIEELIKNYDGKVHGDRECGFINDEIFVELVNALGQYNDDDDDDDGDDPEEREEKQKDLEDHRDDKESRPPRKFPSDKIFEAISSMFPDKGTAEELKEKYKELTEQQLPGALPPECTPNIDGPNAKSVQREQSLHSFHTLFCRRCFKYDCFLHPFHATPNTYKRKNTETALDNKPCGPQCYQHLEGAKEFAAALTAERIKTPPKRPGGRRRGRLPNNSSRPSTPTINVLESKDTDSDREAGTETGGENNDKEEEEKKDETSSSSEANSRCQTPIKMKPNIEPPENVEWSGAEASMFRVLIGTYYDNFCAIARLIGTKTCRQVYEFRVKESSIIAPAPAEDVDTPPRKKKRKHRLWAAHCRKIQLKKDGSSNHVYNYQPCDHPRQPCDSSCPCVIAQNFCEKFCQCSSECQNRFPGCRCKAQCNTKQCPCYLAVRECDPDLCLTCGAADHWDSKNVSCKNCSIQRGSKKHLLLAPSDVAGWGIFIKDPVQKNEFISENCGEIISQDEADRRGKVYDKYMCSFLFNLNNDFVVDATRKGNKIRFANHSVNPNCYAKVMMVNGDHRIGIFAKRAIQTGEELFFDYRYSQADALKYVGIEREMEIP

`CCN(c1cc(O[C@H]2C[C@H](N3CCCCC3)C2)cc(C(=O)NCc2c(CO)cc(C)[nH]c2=O)c1C)C1CCC(F)(F)CC1` [US12390472, Example 95] gave an IC50 of 3.1 nM.

— BindingDB's records for patent US12390472 (Evopoint Biosciences, 2025)
